IC50 data for 22 compounds are collected here from patent US12662491B2 (Redona Therapeutics, Inc., priority 2020, dated 2026).

A word on the IC50: it is the concentration that inhibits the measured activity by half.

For the experiment, the target named is T1, Zcchc11 enzyme (Homo sapiens, UniProt Q5TAX3).
T1 construct: made in house; host or cells: HEK293 cells (Zcchc11); E. coli Rosetta II (LIN28A)
T1 sequence (Q5TAX3 212-1420): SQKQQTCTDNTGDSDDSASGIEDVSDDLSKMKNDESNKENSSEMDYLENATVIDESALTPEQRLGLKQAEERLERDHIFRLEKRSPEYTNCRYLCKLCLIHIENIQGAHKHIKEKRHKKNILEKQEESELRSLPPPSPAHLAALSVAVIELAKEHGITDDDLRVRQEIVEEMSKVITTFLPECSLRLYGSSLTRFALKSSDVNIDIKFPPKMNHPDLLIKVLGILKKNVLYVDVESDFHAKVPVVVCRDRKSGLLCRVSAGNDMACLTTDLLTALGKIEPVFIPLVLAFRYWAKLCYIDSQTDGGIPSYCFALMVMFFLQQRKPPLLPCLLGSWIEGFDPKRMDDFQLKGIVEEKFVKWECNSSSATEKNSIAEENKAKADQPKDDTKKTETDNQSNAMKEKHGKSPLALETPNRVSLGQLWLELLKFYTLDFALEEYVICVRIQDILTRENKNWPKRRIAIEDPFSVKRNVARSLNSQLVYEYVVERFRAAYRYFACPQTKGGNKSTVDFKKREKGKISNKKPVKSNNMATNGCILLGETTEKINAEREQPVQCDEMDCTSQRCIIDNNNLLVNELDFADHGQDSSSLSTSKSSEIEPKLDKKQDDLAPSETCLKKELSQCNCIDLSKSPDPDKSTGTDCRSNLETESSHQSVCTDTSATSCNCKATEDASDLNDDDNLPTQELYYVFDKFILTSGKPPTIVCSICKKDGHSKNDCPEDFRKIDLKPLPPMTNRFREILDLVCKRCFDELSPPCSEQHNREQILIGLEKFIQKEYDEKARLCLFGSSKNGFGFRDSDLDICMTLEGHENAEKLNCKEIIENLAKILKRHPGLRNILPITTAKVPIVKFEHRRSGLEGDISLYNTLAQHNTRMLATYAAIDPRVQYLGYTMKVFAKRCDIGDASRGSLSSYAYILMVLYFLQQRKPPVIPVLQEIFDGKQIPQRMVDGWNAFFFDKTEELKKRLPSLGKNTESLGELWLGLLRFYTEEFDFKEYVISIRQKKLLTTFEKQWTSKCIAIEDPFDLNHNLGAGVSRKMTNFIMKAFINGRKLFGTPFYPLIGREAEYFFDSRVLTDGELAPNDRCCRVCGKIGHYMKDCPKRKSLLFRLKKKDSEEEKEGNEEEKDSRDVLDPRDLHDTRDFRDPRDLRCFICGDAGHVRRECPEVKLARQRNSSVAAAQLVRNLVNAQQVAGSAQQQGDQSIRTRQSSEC
Kind of experiment: TUTase assay (Zcchc11 assay, Lin28a-dependent polyuridylation of pre-let-7). In kind it is biochemical. Particulars: Lin28a-dependent Zcchc11 (Z11) TUTase activity; read-out: Potency Lin28a-dep Z11 IC50. Summed up:
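Readout: time-dependent quench of 5′-fluorescein pre-let-7 (2 nM) as 3′-rhodamine A20 probe anneals to poly(U) tails. Enzyme 0.2 nM Zcchc11 (res. 212-1420), LIN28A 10 nM, UTP 5 uM; pH 7.3 HEPES, 150 mM KCl, 5 mM MgCl2, RT. 4-parameter IC50; 100% = DMSO, 0% = no UTP.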

The structures appear in SMILES notation. Where only a bound is given, the exact number is not on record here.

`COc1cccnc1OC[C@H]1CCCN1c1cc2c(cc1F)c(=O)c(C(=O)O)cn2-c1ccccc1` [Compound 99, (R)-6-fluoro-7-(2-(((3-methoxy-pyridin-2-yl)oxy)methyl)pyrrolidin-1-yl)-4-oxo-1-phenyl-1,4-dihydro-quinoline-3-carboxylic acid]: the half-maximal inhibitory concentration (IC50) was no more than 1000 nM. As for `O=C(O)c1cn(-c2ccccc2)c2cc(N3CCC[C@@H]3COc3ncccc3C(F)(F)F)c(F)cc2c1=O` [Compound 100, (R)-6-fluoro-4-oxo-1-phenyl-7-(2-(((3-(trifluoro-methyl)pyridin-2-yl)oxy)methyl)pyrrolidin-1-yl)-1,4-dihydro-quinoline-3-carboxylic acid], the figure is no more than 1000 nM. As for `Cc1cccnc1OC[C@H]1CCCN1c1cc2c(cc1F)c(=O)c(C(=O)O)cn2-c1ccc(O)cc1F` [Compound 101, (R)-6-fluoro-1-(2-fluoro-4-hydroxy-phenyl)-7-(2-(((3-methyl-pyridin-2-yl)oxy)methyl)pyrrolidin-1-yl)-4-oxo-1,4-dihydro-quinoline-3-carboxylic acid], the figure is no more than 1000 nM; as for `Cc1cccnc1OC[C@H]1CCCN1c1cc2c(cc1F)c(=O)c(C(=O)O)cn2C1CC1` [Compound 102, (R)-1-cyclopropyl-6-fluoro-7-(2-(((3-methyl-pyridin-2-yl)oxy)methyl)pyrrolidin-1-yl)-4-oxo-1,4-dihydro-quinoline-3-carboxylic acid], no more than 1000 nM; as for `Cc1cccnc1OC[C@H]1CCCN1c1cc2c(cc1Cl)c(=O)c(C(=O)O)cn2-c1ccccc1` [Compound 103, (R)-6-chloro-7-(2-(((3-methyl-pyridin-2-yl)oxy)methyl)pyrrolidin-1-yl)-4-oxo-1-phenyl-1,4-dihydro-quinoline-3-carboxylic acid], no more than 1000 nM.

With `Cc1cccnc1OC[C@H]1CCCN1c1cc2c(cc1Cl)c(=O)c(C(=O)O)cn2-c1ccc(O)cc1` [Compound 104, (R)-6-chloro-1-(4-hydroxy-phenyl)-7-(2-(((3-methyl-pyridin-2-yl)oxy)methyl)pyrrolidin-1-yl)-4-oxo-1,4-dihydro-quinoline-3-carboxylic acid], the IC50 is no more than 1000 nM. As for `Cc1ccccc1OC[C@H]1CCCN1c1cc2c(cc1F)c(=O)c(C(=O)O)cn2-c1ccc(O)cc1` [Compound 105, (R)-6-fluoro-1-(4-hydroxy-phenyl)-4-oxo-7-(2-((o-tolyloxy)methyl)pyrrolidin-1-yl)-1,4-dihydro-quinoline-3-carboxylic acid], the figure is 1000 to 10000 nM. As for `Cc1cccc(C)c1OC[C@H]1CCCN1c1cc2c(cc1F)c(=O)c(C(=O)O)cn2-c1ccc(O)cc1` [Compound 106, (R)-7-(2-((2,6-dimethyl-phenoxy)methyl)pyrrolidin-1-yl)-6-fluoro-1-(4-hydroxy-phenyl)-4-oxo-1,4-dihydro-quinoline-3-carboxylic acid], the figure is greater than 50000 nM. As for `O=C(O)c1cn(-c2ccc(O)cc2)c2cc(N3CCC[C@@H]3COc3ccccc3Cl)c(F)cc2c1=O` [Compound 107, (R)-7-(2-((2-chlorophenoxy)methyl)pyrrolidin-1-yl)-6-fluoro-1-(4-hydroxy-phenyl)-4-oxo-1,4-dihydro-quinoline-3-carboxylic acid], the figure is 1000 to 10000 nM; as for `CC1(n2cc(C(=O)O)c(=O)c3cc(Cl)c(N4CCC4COc4ccccn4)cc32)CC1` (stereo not shown) [Compound 108, 6-chloro-1-(1-methyl-cyclopropyl)-4-oxo-7-(2-((pyridin-2-yloxy)methyl)azetidin-1-yl)-1,4-dihydro-quinoline-3-carboxylic acid], 10000 to 50000 nM; as for `O=C(O)c1cn(-c2ccccc2)c2cc(N3CCC[C@@H]3COc3ncccc3Cl)c(Cl)cc2c1=O` [Compound 109, (R)-6-chloro-7-(2-(((3-chloropyridin-2-yl)oxy)methyl)pyrrolidin-1-yl)-4-oxo-1-phenyl-1,4-dihydro-quinoline-3-carboxylic acid], no more than 1000 nM. With `N#Cc1cccnc1OC[C@H]1CCCN1c1cc2c(cc1Cl)c(=O)c(C(=O)O)cn2-c1ccccc1` [Compound 110, (R)-6-chloro-7-(2-(((3-cyanopyridin-2-yl)oxy)methyl)pyrrolidin-1-yl)-4-oxo-1-phenyl-1,4-dihydro-quinoline-3-carboxylic acid], the IC50 was no more than 1000 nM. As for `O=C(O)c1cn(C2CC2)c2cc(N3CCC[C@@H]3COc3ccccn3)c(Cl)cc2c1=O` [Compound 111, (R)-6-chloro-1-cyclopropyl-4-oxo-7-(2-((pyridin-2-yloxy)methyl)pyrrolidin-1-yl)-1,4-dihydro-quinoline-3-carboxylic acid], the figure is 1000 to 10000 nM.

Consider `O=C(O)c1cn(-c2ccc(O)cc2)c2cc(N3CCC[C@@H]3CNc3ncccc3Cl)c(F)cc2c1=O` [Compound 112, (R)-7-(2-(((3-chloropyridin-2-yl)amino)methyl)pyrrolidin-1-yl)-6-fluoro-1-(4-hydroxy-phenyl)-4-oxo-1,4-dihydro-quinoline-3-carboxylic acid], for which the IC50 is no more than 1000 nM. As for `O=C(O)c1cn(-c2ccc(O)cc2)c2cc(N3CCC[C@@H]3Cn3ccc4cccnc43)c(F)cc2c1=O` [Compound 113, (R)-7-(2-((1H-pyrrolo[2,3-b]pyridin-1-yl)methyl)pyrrolidin-1-yl)-6-fluoro-1-(4-hydroxy-phenyl)-4-oxo-1,4-dihydro-quinoline-3-carboxylic acid], the figure is no more than 1000 nM; as for `CC1(n2cc(C(=O)O)c(=O)c3cc(Cl)c(N4CCC[C@@H]4CN4CCOCC4)cc32)CC1` [Compound 114, (R)-6-chloro-1-(1-methylcyclo-propyl)-7-(2-(morpholino-methyl)pyrrolidin-1-yl)-4-oxo-1,4-dihydro-quinoline-3-carboxylic acid], greater than 50000 nM; as for `CC1(n2cc(C(=O)O)c(=O)c3cc(Cl)c(N4CCC[C@@H]4CN4CCc5cccnc54)cc32)CC1` [Compound 115, (R)-6-chloro-7-(2-((2,3-dihydro-1H-pyrrolo[2,3-b]pyridin-1-yl)methyl)pyrrolidin-1-yl)-1-(1-methylcyclo-propyl)-4-oxo-1,4-dihydro-quinoline-3-carboxylic acid], 1000 to 10000 nM.

As for `O=C(O)c1cn(-c2ccc(O)cc2)c2cc(N3CCC[C@@H]3COc3nccc4[nH]cnc34)c(F)cc2c1=O` [Compound 116, (R)-7-(2-(((1H-imidazo[4,5-c]pyridin-4-yl)oxy)methyl)pyrrolidin-1-yl)-6-fluoro-1-(4-hydroxy-phenyl)-4-oxo-1,4-dihydro-quinoline-3-carboxylic acid], the 50% inhibitory concentration (IC50) fell in the range of 1000 to 10000 nM. As for `O=C(O)c1cn(-c2ccc(O)cc2)c2cc(N3CCC[C@@H]3COc3nccc4cc[nH]c34)c(F)cc2c1=O` [Compound 117, (R)-7-(2-(((1H-pyrrolo[2,3-c]pyridin-7-yl)oxy)methyl)pyrrolidin-1-yl)-6-fluoro-1-(4-hydroxy-phenyl)-4-oxo-1,4-dihydro-quinoline-3-carboxylic acid], the figure is no more than 1000 nM; as for `O=C(O)c1cn(-c2ccc(O)cc2)c2cc(N3CCC[C@@H]3COc3cc4cc[nH]c4cn3)c(F)cc2c1=O` [Compound 118, (R)-7-(2-(((1H-pyrrolo[2,3-c]pyridin-5-yl)oxy)methyl)pyrrolidin-1-yl)-6-fluoro-1-(4-hydroxy-phenyl)-4-oxo-1,4-dihydro-quinoline-3-carboxylic acid], no more than 1000 nM; as for `Cc1cccnc1OC[C@H]1CCCN1c1cc2c(cc1F)c(=O)c(C(=O)O)cn2-c1ccc(O)cc1` [Compound 119, (R)-6-fluoro-1-(4-hydroxy-phenyl)-7-(2-(((3-methylpyridin-2-yl)oxy)methyl)pyrrolidin-1-yl)-4-oxo-1,4-dihydro-quinoline-3-carboxylic acid], no more than 1000 nM. `Cc1cccnc1OC[C@H]1CCCN1c1cc2c(cc1F)c(=O)c(C(=O)O)cn2-c1ccc(O)c(F)c1` [Compound 120, (R)-6-fluoro-1-(3-fluoro-4-hydroxy-phenyl)-7-(2-(((3-methylpyridin-2-yl)oxy)methyl)pyrrolidin-1-yl)-4-oxo-1,4-dihydro-quinoline-3-carboxylic acid]: the 50% inhibitory concentration (IC50) is no more than 1000 nM.
